Literature values, collected in patent US6319912A, “Cyclic regimens using 2,1-benzisothiazoline 2,2-dioxides” (American Home Products Corporation, priority 2000, dated 2001).

Tested on: hormone dependent prostate cancer
Details: literature, Michna et al 1995

| Structure (SMILES) | effectiveness in a model of hormone dependent prostate cancer |
| --- | --- |
| CC#C[C@]1(O)CC[C@H]2[C@@H]3CCC4=CC(=O)CCC4=C3[C@@H](c3ccc(N(C)C)cc3)C[C@@]21C [mifepristone] | effective |
| CN(C)c1ccc([C@H]2C[C@]3(C)[C@@H](CC[C@]3(O)CCCO)[C@@H]3CCC4=CC(=O)CCC4=C32)cc1 [onapristone] | effective |
